According to ChEMBL document CHEMBL1128302, “Synthesis, absolute configuration, and enantioselectivity of antiretroviral effect of (R)-(-)- and (S)-(+)-cytallene. Lipase-catalyzed enantioselective acylations of (+/-)-N4-acylcytallenes” (J Med Chem, 1995):

Assay: Inhibitory activity against HIV-1 replication in phytohemagglutininin-activated peripheral blood mononuclear (PHA-PBM) cells
Assay type: functional, Homo sapiens

IC50 [nM]	IC90 [nM]	IC90 (Homo sapiens) [nM]	Compound
800	3400		Nc1ccn(C=C=CCO)c(=O)n1 (stereo in doubt; 1b)
> 10000			Nc1ccn(C=C=CCO)c(=O)n1 (stereo in doubt; 3c)
400		1700	Nc1ccn(C=C=CCO)c(=O)n1 (stereo in doubt; 2b)
